Experimental data as given in PMC5489165, “Identification of benzazole compounds that induce HIV-1 transcription” (PLoS ONE, 2017).

What was measured:
[1] = Protein binding, mouse plasma (ultrafiltration); assay type: in vitro ADME; settings: pH 7.4
Protocol: Binding of test compound to plasma proteins was estimated by incubation of test compounds with mouse or human plasma. Human plasma was obtained from BioreclamationIVT (Westbury, NY). […] After a 15 min incubation at 37°C, triplicate aliquots of the incubation mixtures were transferred to a Millipore Multiscreen Ultracel-10 filter plate (10 kDa molecular mass cut off, EMD Millipore, Billerica, MA). The plate was centrifuged for 60 min at 3000 × g and 37°C. After centrifugation, aliquots of both the ultrafiltrates as well as the incubation mixtures prior to ultrafiltration were analyzed by LC-MS/MS to quantify the concentrations of test compound and reference compounds.

[2] = Cytotoxicity assay in SupT1 cells (ATP, CellTiter-Glo); assay type: cell-based; settings: human, SupT1 cells; ATP quantification; 72 h; read-out: CC50, SupT1
Protocol: SupT1 cells were plated at 100,000 per well in 96-well, white-walled plates with serial dilutions of test compound in a total volume of 100 μl RPMI-1640 medium containing 10% FBS and 0.5% DMSO. PBMCs were plated similarly at 50,000 cells/well and stimulated by addition of 40 μg/ml PHA and 80 ng/ml interleukin-2 (IL-2). Cells were incubated for 72 h at 37°C, 5% CO2. ATP was quantified using the CellTiter-Glo Luminescent Cell Viability Assay (Promega, Madison, WI) on a ViewLux microplate imager (Perkin Elmer, Waltham, MA). Percent cytotoxicity was determined relative to vehicle-only treated wells.

[3] = system: HIV-1 transcription in 24STNLSG cells; assay: SEAP assay in 24STNLSG cells (latency reactivation); assay type: cell-based; settings: for EC2X, 24STNLSG: concentration for 2-fold increase in SEAP activity; for Activity in 24STNLSG cells (in words): structure-activity
Protocol: SupT1-derived 24STNLSG cells were plated at 100,000 cells/well in black bottom/black walled 96-well plates in 50 μl RPMI-1640 medium (without phenol red) containing 10% FBS. Compound was added in 50 μl of identical medium using three-fold dose-response dilutions, in duplicate. […] TNF-α, a nuclear factor-κB (NF-κB) activator known to induce HIV- expression in cellular models, was used as a positive control. Plates were incubated for 72 h at 37°C, 5% CO2. Plates were then sealed and heated to 65°C for 30 min. Plates were brought to room temperature and 50 μl assay buffer (1 mM MgCl2, 10 mM L-homoarginine, 1 M diethylamine hydrochloride) was added to each well and incubated for 5 min at room temperature. To each well, 50 μl of CSPD Substrate (0.4 mM Ready-to-Use with Sapphire-II Enhancer; Applied Biosystems, Foster City, CA) was added. Plates were incubated for 20 min at room temperature and read on a ViewLux microplate imager (Perkin Elmer, Waltham, MA). Curves were fit by non-linear regression using Prism software (GraphPad, San Diego, CA).

[4] = Microsome assay, mouse liver microsomes; assay type: in vitro ADME
Protocol: (§1) Human and mouse liver microsomes were obtained from XenoTech, LLC (Kansas City, KS). The reaction mixture was composed of liver microsomes (0.5 mg/mL), 20 mM Tris-HCl pH 7.4, 2.5 mM MgCl2, and an NADPH generating system (0.1 mM NADP, 1.2 mM glucose-6-phosphate and 0.3 units/ml glucose-6-phophate dehydrogenase). […] Test compounds were added to the microsome reaction and loss of parent molecule was monitored after 1 h by LC/MS/MS.

[5] = Microsome assay, human liver microsomes; assay type: in vitro ADME
Protocol: as §1

[6] = system: HIV-1 Gag (p24) in ACH-2 cells; assay: Intracellular staining for HIV Gag in ACH-2 cells (flow cytometry); assay type: cell-based; settings: 16 h, 30 μM Cmpd 1 or Cmpd 2, 10 μM SAHA, 1 mM JQ1 or 10 ng/ml PMA, single experiment (Fig 4A)
Protocol: ACH-2 cells were treated as indicated and HIV-1 expression was monitored by intracellular staining for p24. Approximately, 1 × 10^6 cells were collected and washed in PBS before fixing by resuspending in 100 μl of BD Cytofix/Cytoperm (BD Biosciences, San Jose, CA) at 4°C for at least 20 min. Cells were then harvested by centrifugation and resuspended in 100 μl BD PermWash (50 mM NH4Cl, 5 mM EDTA, 0.1% saponin, 0.5% BSA, PBS and 1 mg/ml of anti-HIV-Gag PE (Clone KC57, Beckman Coulter, Brea CA). Cells were stained for 30 min, washed with the PermWash, and resuspended in FACS buffer (2 mM EDTA, 0.5% BSA, 1% paraformaldehyde in PBS). Cells were analyzed by flow cytometry using a FACSCalibur instrument (BD Biosciences). Flow cytometry was performed at the Boston University School of Medicine flow cytometry core.
Fig 4 Induction of HIV-1 expressing cells following treatment with latency reversing agents. ACH-2 cells were not treated or treated with a final concentration of 30 μM Cmpd 1 or Cmpd 2, 10 μM SAHA, 1 mM JQ1 or 10 ng/ml PMA for 16 h. Cells were stained using anti-HIV-Gag-PE and analyzed by flow cytometry. Numbers within the profiles represent the percentage of positive cells. These profiles are from a single experiment. B) Data from four independent experiments. Y-axis is mean of % p24 positive cells. * Cmpd 1 p-value […] compared to other treatments using a two-tailed t-test. TEXT PRINTED IN THE PICTURE: (A) Cmpd 1: Intracellular Gag: 65.6% | (A) Cmpd 2: Intracellular Gag: 33.9% | (A) SAHA: Intracellular Gag: 23.0% | (A) JQ1: Intracellular Gag: 16.7% | (A) PMA: Intracellular Gag: 94.2%

[7] = system: Epstein-Barr virus (EBV) in Raji cells; assay: EBV activation assay in Raji cells (BZLF1 qRT-PCR); assay type: cell-based; settings: Raji cells, 24 h, concentrations as low as 0.014 ng/ml
[8] = system: Kaposi's sarcoma associated herpesvirus (KSHV) in BCP-1 cells; assay: KSHV activation assay in BCP-1 cells (ORF50 qRT-PCR); assay type: cell-based; settings: 24 h, concentrations as low as 0.014 ng/ml
[9] = system: IL-2 secretion by PBMCs; assay: IL-2 ELISA in PBMCs; assay type: cell-based, human; settings: 24 h
Protocol: Cryopreserved PBMCs from a single donor were thawed in RPMI-1640 plus 10% FBS. PBMCs were plated at 5×10^4/well in 96-well plates and compound was added with a final concentration of 0.5% DMSO. Plates were incubated for 24 h at 37°C, 5% CO2. Interleukin-2 was quantified using Human IL-2 DuoSet ELISA (R&D Systems, Minneapolis, MN). Raw data were converted to ng/ml IL-2 using a standard curve obtained in parallel.

[10] = Protein binding, human plasma (ultrafiltration); assay type: in vitro ADME; settings: human plasma, 10 μM, pH 7.4
[11] = system: NF-κB response element reporter in Jurkat cells; assay: NF-κB-responsive Fluc reporter in Jurkat cells; assay type: cell-based, human; settings: stably-transfected Jurkat cells, 4 h
Excerpt: The vector pGL4.32[luc2P/NF-κB-RE/Hygro] was purchased from Promega (Madison, WI), encoding 5 copies of a NF-κB response element driving expression of synthetic firefly luciferase gene, luc2, including a PEST destabilization sequence. Jurkat cells were transfected with this vector using a Gene Pulser® II (Biorad, Hercules, CA) with a 0.4 cm gap cuvette at 0.2 kV and 960 μF. Cells were allowed to recover for three days in RPMI-1640 with 10% FBS and 1% penicillin/streptomycin before selection with 200 μg/ml Hygromycin B for one month. Pooled, stably-transfected cells were plated at 50,000/well in 96-well plates and treated with test compounds in a final concentration of 0.5% DMSO for 4 h at 37°C. Luciferase activity was determined by adding one volume 2× steadylite plus reagent (Perkin Elmer, Waltham, MA) and reading on a ViewLux microplate imager.

[12] = system: HIV-1 LTR; assay: HIV LTR-driven Rluc reporter in HeLa cells; assay type: cell-based; settings: transfected HeLa cells, 24 h
Excerpt: The vector pGL4.77[hRlucP/Hygro] encoding a Renilla luciferase gene including a PEST destabilization sequence, was purchased from Promega (Madison, WI). HIV-1 cDNA was generated from HIVIIIB virus using PureLink® Viral RNA/DNA Mini Kit (Invitrogen). The HIV-1 core promoter region (nucleotides -105 to 60) was amplified from HIVIIIB cDNA using primers designed with NheI (forward: 5ʹ-GCTAGCGGGACTTTCCGCTGGG-3ʹ) and XhoI (reverse: 5ʹ-CTCGAGAGTGGGTTCCCTAGTTAGCCA-3ʹ) flanking restriction site sequences. DNA fragments were generated using Platinum® Taq DNA Polymerase High Fidelity (Invitrogen) and fragment size was verified by electrophoresis using E-Gel® 1.2% agarose (Invitrogen). Fragments were cloned into pCR™2.1 TOPO® (Invitrogen), transformed into One Shot® TOP10 Chemically Competent E. coli (Invitrogen), and selected on LB-agar plates containing 100 μg/ml ampicillin. Individual colonies were grown in LB broth, DNA was isolated using QIAprep® Spin Miniprep Kit (Qiagen), and the inserted fragment was verified by EcoRI digestion followed by electrophoresis using E-Gel® 1.2% agarose (Invitrogen). To insert the HIV-1 LTR into the vector multiple cloning region, the resultant plasmids and pGL4.77[hRlucP/Hygro] were dually digested with NheI and XhoI (New England Biolabs), ligated using ExpressLink™ T4 DNA Ligase (Invitrogen), transformed into One Shot® TOP10 Chemically Competent E. coli (Invitrogen), and selected on LB-agar plates containing 100 μg/ml ampicillin. Clones were picked and DNA isolated using QIAprep® Spin Miniprep Kit (Qiagen) and the inserted fragment was verified by NheI/XhoI digestion followed by electrophoresis using E-Gel® 1.2% agarose (Invitrogen). The resultant plasmid, pGL4.77-LTR, was verified by sequencing at GENEWIZ (South Plainfield, NJ). […] Luciferase activity was quantified using Renilla Luciferase Assay System (Promega, Madison, WI) and results were normalized to the vehicle-treated control.

Compound: CC(=O)CC(c1ccccc1)c1c(O)c2ccccc2oc1=O (racemic) [Warfarin, (RS)-warfarin, reference compound]
- fraction unbound at 15 min, 10 μM ([1]; mouse, plasma): 0.047

Compound: Nc1ccc2[nH]c(-c3ccc(-c4nc5c(N)cccc5o4)cc3)nc2c1 [Compound 3]
- CC50 at 72 h [2]: 8.8 µM
- Max. fold induction, 24STNLSG ([3]; SEAP reporter, 72 h): 3 fold
- EC2X, 24STNLSG ([3]; 72 h): 3.7 µM

Compound: Cn1c(-c2ccc(-c3nc4cc(N)ccc4o3)cc2)nc2cc(N)ccc21 [Compound 4]
- CC50 at 72 h [2]: > 100 µM
- EC2X, 24STNLSG ([3]; 72 h): >100 µM
- Activity in 24STNLSG cells (in words) [3]: complete loss of activity

Compound: Nc1ccc2oc(-c3ccc(-c4nc5cc(N)ccc5o4)cc3)nc2c1 [Compound 5]
- CC50 at 72 h [2]: > 100 µM
- EC2X, 24STNLSG ([3]; 72 h): >100 µM
- Activity in 24STNLSG cells (in words) [3]: inactive

Compound: Nc1ccc2[nH]c(-c3ccc(-c4nc5cc(N)ccc5[nH]4)cc3)nc2c1 [Compound 6]
- CC50 at 72 h [2]: > 100 µM
- EC2X, 24STNLSG ([3]; 72 h): >100 µM
- Activity in 24STNLSG cells (in words) [3]: inactive

Compound: CC(C)N(CCC(C(N)=O)(c1ccccc1)c1ccccn1)C(C)C (stereo not shown) [Disopyramide, reference compound]
- MLM stability (% loss of parent compound at 1 h) [4]: 12%
- HLM stability (% loss of parent compound at 1 h) [5]: 9%

Compound: Cc1sc2c(c1C)C(c1ccc(Cl)cc1)=N[C@@H](CC(=O)OC(C)(C)C)c1nnc(C)n1-2 [JQ1, reference compound]
- Intracellular Gag, percentage of positive cells [6]: 16.7%

Compound: CCCCCCCCCCCCCC(=O)O[C@@H]1[C@@H](C)[C@@]2(O)[C@@H](C=C(CO)C[C@]3(O)C(=O)C(C)=C[C@@H]23)[C@@H]2C(C)(C)[C@]12OC(C)=O [PMA, phorbol 12-myristate 13-acetate, reference compound]
- Intracellular Gag, percentage of positive cells [6]: 94.2%
- Stimulation of BLZF1 mRNA (EBV) [7]: > 35 fold
- Stimulation of ORF50 mRNA (KSHV) [8]: > 35 fold
- IL-2 secretion by PBMCs (in words) [9]: induced high levels of IL-2

Compound: CC(C)NCC(O)COc1cccc2ccccc12 (stereo not shown) [Propanolol, propranolol, reference compound]
- % Plasma protein binding (human) [10]: 74.3%
- % Plasma protein binding (mouse) ([1]; mouse plasma, 10 μM): 73.8%

Compound: O=C(CCCCCCC(=O)Nc1ccccc1)NO [SAHA, Suberanilohydroxamic acid, reference compound]
- Intracellular Gag, percentage of positive cells [6]: 23.0%

Compound: TNF-α
- Induction of NF-κB driven reporter (in words) [11]: strongly induced this reporter
- Transcription driven by the HIV-1 LTR (in words) [12]: significantly increased expression of this reporter
